Article PMC3433414, “Oral Administration of the Pimelic Diphenylamide HDAC Inhibitor HDACi 4b Is Unsuitable for Chronic Inhibition of HDAC Activity in the CNS In Vivo” (PLoS ONE, 2012)
≈ marks a conversion by molar mass, not a printed value. Where two headings read alike, the source gives them in different places.

Experiments:
D4.4 (h) = molecular target: T1, D4.4 (h) (Homo sapiens, UniProt P21917); experiment: Cerep binding, antagonist radioligand; settings: read-out: % inhibition of control specific binding
T1 construct: purchased Cerep (Diversity Profile)
T1 sequence (P21917 whole entry): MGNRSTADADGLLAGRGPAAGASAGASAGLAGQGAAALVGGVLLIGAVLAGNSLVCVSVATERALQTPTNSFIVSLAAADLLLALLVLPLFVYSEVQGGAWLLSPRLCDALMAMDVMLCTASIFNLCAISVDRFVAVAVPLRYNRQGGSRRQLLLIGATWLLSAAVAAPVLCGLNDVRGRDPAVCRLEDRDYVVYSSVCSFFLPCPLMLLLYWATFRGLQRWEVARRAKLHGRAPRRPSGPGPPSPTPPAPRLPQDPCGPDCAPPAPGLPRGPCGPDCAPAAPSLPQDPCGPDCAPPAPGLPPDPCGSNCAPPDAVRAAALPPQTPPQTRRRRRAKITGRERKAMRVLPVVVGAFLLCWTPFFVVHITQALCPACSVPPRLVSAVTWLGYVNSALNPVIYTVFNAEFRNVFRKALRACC
Excerpt: (§1) In addition to the HDAC profiling performed, we also queried 4b for any apparent potential off-target effects, which could complicate any finding of efficacy or adverse events in vivo due to ‘polypharmacy’. This was accomplished by screening against a ‘diversity panel’ of 72 binding and 29 enzyme assays, comprised of roughly equal numbers of selective central and peripheral therapeutically relevant targets (Cerep Diversity Profile). This panel included representative targets from diverse enzyme families, G protein coupled receptors, steroid nuclear receptors, voltage- and ligand-gated ion channels. While not totally inclusive, it is a useful tool for discovery compounds to assess their viability as proof of concept molecules to specifically query a particular target. 4b was initially screened at 10 µM in duplicate. The full set of results is provided as Table S1. […] This clean in vitro profile was considered acceptable to proceed to ADME and pharmacokinetic studies.

NK3 (h) = molecular target: T2, NK3 (h) (Homo sapiens, UniProt P29371); experiment: Cerep binding, antagonist radioligand; settings: read-out: % inhibition of control specific binding
T2 construct: purchased Cerep (Diversity Profile)
T2 sequence (P29371 whole entry): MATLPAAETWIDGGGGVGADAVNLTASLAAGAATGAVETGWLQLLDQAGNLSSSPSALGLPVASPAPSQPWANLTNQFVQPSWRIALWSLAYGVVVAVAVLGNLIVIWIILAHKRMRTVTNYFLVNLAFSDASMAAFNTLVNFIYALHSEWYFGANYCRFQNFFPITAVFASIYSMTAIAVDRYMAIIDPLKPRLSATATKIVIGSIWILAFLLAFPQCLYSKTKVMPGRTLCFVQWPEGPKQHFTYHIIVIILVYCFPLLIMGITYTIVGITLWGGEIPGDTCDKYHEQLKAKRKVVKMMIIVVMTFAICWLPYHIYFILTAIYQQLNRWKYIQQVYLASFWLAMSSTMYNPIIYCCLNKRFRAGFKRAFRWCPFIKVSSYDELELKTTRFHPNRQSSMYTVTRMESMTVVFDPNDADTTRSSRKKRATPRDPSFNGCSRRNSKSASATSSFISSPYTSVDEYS
Excerpt: as §1

5‐HT transporter (h) = molecular target: T3, 5‐HT transporter (h) (Homo sapiens, UniProt P31645); experiment: Cerep binding, antagonist radioligand; settings: read-out: % inhibition of control specific binding
T3 construct: purchased Cerep (Diversity Profile)
T3 sequence (P31645 whole entry): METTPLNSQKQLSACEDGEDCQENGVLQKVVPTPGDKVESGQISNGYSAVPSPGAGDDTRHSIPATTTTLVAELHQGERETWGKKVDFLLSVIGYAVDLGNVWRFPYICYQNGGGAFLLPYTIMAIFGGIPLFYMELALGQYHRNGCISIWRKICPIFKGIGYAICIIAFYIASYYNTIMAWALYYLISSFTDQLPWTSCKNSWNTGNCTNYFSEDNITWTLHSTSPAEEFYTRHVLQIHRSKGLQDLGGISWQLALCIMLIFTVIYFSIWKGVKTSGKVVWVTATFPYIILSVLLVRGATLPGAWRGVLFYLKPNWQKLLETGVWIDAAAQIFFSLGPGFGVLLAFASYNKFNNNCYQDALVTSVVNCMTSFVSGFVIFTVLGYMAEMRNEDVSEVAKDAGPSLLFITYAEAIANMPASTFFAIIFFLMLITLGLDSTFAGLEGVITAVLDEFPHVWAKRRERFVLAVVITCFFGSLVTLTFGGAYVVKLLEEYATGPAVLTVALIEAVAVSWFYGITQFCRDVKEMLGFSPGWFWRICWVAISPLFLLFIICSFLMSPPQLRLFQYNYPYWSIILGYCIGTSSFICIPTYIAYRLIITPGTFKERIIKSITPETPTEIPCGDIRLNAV
Excerpt: as §1

[1] = molecular target: T4, choline transporter (CHT1) (h) (Homo sapiens, UniProt Q9GZV3); experiment: Cerep binding, antagonist radioligand; settings: read-out: % inhibition of control specific binding
T4 construct: purchased Cerep (Diversity Profile)
T4 sequence (Q9GZV3 whole entry): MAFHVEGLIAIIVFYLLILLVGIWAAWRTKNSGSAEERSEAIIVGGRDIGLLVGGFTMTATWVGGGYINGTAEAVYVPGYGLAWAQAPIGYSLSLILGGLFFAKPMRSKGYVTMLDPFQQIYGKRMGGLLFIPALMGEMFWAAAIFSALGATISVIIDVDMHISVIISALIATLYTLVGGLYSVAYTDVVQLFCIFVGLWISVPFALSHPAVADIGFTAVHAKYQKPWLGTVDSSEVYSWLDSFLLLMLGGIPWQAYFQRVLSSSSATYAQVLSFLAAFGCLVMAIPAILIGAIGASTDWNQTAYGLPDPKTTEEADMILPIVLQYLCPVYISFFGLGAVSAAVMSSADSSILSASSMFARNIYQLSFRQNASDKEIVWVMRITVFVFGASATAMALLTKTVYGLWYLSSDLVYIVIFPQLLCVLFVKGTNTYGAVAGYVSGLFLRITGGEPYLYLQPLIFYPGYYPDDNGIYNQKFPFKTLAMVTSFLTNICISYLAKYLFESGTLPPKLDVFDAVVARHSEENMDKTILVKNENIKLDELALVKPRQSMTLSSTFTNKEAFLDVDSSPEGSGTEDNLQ
Excerpt: as §1

dopamine transporter (h) = molecular target: T5, dopamine transporter (h) (Homo sapiens, UniProt Q01959); experiment: Cerep binding, antagonist radioligand; settings: read-out: % inhibition of control specific binding
T5 construct: purchased Cerep (Diversity Profile)
T5 sequence (Q01959 whole entry): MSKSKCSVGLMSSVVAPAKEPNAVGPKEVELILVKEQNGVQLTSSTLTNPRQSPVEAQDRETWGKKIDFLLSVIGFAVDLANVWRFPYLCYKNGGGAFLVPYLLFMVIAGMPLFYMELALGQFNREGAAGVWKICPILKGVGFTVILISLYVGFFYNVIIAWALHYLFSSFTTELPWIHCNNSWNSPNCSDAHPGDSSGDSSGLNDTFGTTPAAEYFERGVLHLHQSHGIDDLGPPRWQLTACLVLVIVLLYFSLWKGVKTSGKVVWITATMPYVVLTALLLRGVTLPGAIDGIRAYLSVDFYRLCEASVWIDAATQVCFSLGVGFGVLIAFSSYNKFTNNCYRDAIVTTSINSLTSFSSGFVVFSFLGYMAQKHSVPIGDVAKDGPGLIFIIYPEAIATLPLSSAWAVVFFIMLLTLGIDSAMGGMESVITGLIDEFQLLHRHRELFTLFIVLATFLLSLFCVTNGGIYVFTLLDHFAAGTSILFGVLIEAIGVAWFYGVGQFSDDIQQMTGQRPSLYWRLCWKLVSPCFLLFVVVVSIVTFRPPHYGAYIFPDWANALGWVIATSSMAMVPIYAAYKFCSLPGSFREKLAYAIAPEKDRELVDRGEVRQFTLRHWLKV
Excerpt: as §1

KV channel = experiment: Cerep binding, antagonist radioligand; settings: 10 μM
Excerpt: as §1

A1 (h) = molecular target: T6, A1 (h) (Homo sapiens, UniProt P30542); experiment: Cerep binding, antagonist radioligand; settings: read-out: % inhibition of control specific binding
T6 construct: purchased Cerep (Diversity Profile)
T6 sequence (P30542 whole entry): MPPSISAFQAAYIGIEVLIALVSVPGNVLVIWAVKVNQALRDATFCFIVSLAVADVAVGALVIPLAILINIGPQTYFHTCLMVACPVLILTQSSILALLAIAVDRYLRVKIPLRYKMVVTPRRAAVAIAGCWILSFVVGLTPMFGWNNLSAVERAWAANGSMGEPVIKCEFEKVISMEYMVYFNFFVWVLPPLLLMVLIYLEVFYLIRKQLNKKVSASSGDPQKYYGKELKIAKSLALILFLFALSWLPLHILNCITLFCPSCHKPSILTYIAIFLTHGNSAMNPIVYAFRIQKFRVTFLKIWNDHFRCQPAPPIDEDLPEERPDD
Excerpt: as §1

[2] = Cerep binding, antagonist radioligand; settings: 10 μM
Excerpt: as §1

D2S (h) = molecular target: T7, D2S (h) (Homo sapiens, UniProt P14416); experiment: Cerep binding, antagonist radioligand; settings: read-out: % inhibition of control specific binding
T7 construct: purchased Cerep (Diversity Profile)
T7 sequence (P14416 1-414 isoform P14416-2): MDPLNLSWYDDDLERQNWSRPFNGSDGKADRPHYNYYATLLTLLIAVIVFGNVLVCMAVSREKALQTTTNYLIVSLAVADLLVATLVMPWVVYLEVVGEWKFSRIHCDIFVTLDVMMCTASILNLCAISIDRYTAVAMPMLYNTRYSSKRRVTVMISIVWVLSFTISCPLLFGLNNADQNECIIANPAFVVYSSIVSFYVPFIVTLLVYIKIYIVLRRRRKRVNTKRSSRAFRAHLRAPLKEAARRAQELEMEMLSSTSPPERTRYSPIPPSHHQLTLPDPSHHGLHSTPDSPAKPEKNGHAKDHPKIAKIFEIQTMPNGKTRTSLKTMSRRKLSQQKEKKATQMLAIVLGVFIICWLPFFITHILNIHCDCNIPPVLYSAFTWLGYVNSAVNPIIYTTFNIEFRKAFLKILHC
Excerpt: as §1

D3 (h) = molecular target: T8, D3 (h) (Homo sapiens, UniProt P35462); experiment: Cerep binding, antagonist radioligand; settings: read-out: % inhibition of control specific binding
T8 construct: purchased Cerep (Diversity Profile)
T8 sequence (P35462 whole entry): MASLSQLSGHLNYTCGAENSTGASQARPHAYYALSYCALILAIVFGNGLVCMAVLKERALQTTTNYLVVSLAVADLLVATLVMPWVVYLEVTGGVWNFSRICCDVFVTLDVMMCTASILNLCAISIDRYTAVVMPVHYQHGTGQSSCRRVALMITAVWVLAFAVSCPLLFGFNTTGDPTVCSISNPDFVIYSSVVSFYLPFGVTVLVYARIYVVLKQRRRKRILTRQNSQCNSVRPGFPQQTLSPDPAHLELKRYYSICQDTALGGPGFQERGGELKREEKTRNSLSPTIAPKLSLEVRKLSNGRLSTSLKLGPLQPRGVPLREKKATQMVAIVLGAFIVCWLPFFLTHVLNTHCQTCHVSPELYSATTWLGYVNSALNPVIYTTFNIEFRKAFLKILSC
Excerpt: as §1

Cl‐channel (GABA‐gated) = experiment: Cerep binding, antagonist radioligand; settings: 10 μM
Excerpt: as §1

[3] = tested on: Ca2+ channel (L, verapamil site) (phenylalkylamine); experiment: Cerep binding, antagonist radioligand; settings: 10 μM
Excerpt: as §1

[4] = molecular target: T9, norepinephrine transporter (h) (Homo sapiens, UniProt P23975); experiment: Cerep binding, antagonist radioligand; settings: read-out: % inhibition of control specific binding
T9 construct: purchased Cerep (Diversity Profile)
T9 sequence (P23975 whole entry): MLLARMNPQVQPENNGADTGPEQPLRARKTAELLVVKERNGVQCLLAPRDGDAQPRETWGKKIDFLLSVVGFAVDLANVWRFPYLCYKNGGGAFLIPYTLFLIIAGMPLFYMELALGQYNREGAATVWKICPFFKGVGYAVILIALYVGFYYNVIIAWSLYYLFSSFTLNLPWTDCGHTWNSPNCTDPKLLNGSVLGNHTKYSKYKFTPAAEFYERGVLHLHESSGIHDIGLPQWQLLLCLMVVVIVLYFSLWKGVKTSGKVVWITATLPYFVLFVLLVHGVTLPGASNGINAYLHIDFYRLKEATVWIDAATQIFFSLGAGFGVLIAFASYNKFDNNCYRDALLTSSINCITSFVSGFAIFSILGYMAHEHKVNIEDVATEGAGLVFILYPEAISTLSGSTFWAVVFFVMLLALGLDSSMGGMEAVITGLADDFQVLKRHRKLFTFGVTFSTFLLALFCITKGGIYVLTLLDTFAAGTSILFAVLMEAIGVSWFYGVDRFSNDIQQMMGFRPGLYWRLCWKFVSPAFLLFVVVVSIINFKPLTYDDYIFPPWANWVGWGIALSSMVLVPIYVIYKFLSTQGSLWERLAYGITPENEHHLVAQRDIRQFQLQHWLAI
Excerpt: as §1

I2 = experiment: Cerep binding, antagonist radioligand; settings: 10 μM
Excerpt: as §1

H1 (h) = molecular target: T10, H1 (h) (Homo sapiens, UniProt P35367); experiment: Cerep binding, antagonist radioligand; settings: read-out: % inhibition of control specific binding
T10 construct: purchased Cerep (Diversity Profile)
T10 sequence (P35367 whole entry): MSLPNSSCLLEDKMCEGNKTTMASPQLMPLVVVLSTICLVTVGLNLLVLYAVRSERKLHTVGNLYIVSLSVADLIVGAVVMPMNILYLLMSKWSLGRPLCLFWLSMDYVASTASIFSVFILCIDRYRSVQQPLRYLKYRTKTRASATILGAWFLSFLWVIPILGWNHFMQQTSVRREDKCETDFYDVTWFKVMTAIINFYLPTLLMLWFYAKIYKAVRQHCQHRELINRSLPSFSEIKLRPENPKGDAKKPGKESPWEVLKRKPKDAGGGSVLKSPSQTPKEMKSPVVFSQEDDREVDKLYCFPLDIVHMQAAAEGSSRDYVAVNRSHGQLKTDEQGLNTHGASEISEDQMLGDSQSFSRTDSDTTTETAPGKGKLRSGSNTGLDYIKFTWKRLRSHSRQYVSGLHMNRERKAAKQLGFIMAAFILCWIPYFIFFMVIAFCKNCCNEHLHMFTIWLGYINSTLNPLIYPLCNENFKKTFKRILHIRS
Excerpt: as §1

CCK1 (CCKA) (h) = molecular target: T11, CCK1 (CCKA) (h) (Homo sapiens, UniProt P32238); experiment: Cerep binding, agonist radioligand (CCK-8S); settings: for inhibition at 10 µM: read-out: % inhibition of control specific binding
T11 construct: Cerep
T11 sequence (P32238 1-428): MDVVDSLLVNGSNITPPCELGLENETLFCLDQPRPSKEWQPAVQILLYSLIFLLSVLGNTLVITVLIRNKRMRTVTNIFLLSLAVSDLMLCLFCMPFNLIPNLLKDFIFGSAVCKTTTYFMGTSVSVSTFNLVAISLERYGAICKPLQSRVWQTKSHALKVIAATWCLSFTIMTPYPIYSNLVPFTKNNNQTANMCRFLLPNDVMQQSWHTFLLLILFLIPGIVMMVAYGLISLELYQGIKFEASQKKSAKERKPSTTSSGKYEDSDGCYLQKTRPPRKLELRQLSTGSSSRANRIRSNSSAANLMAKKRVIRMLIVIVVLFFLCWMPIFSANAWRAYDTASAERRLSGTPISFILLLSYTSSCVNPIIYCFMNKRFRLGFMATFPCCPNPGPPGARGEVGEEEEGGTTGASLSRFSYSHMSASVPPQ
Excerpt: as §1
Supplementary file pone.0044498.s001.tif: Figure S1 Displacement of CCK-8S (agonist radioligand) from the CCK1 receptor by 4b and C1. (TIF) Click here for additional data file.

[5] = Solubility in water, formulations and DMSO; format: physicochemical
Description: Thomas and colleagues reported that a solution of 4b at 1 mg/mL was previously obtained using this procedure. […] We therefore prepared both TFA and hydrochloride (HCl) salts of 4b to establish whether they could offer improved solubility. Neither salt form of 4b was particularly soluble in water (<1 mg/ml). […] A study of the stability of the TFA salt also raised another more worrying issue in the use of 2-hydroxypropyl-β-cyclodextrin–complexed 4b salts for potential in vivo studies. […] The 4b. TFA cyclodextrin suspension targeted at 1 mg/ml with heating gave an initial (day 1) measured value of 0.75 mg/ml total 4b, with only 0.27 mg/mL solubilised as quantified in the sample after filtration. The lower than expected initial quantification of 4b was most likely due to the TFA salt rapidly degrading upon heating. Indeed, we always found the presence of the cyclised benzimidazole conversion product, named throughout as product C1, in the salt formulations even at t = 0 after preparation. Furthermore, the suspension was not stable upon standing in the dark with gentle shaking at room temperature, with a further 28% decrease observed in parent (4b) concentration on day 7 analysis, compared to day 1.
As a consequence de novo formulation attempts were made with the stable free base form. After several trials with different excipients, we were able to reach a soluble formulation preparation of 1 mg/ml 4b in 2% N-methyl-2-pyrollidone, 18% polyethylene glycol 400, 10% solutol HS-15 and 70% (1% Lutrol F68 in water), a vehicle which we have previously used without any adverse effects in R6/2 model chronic efficacy trials, but is unlikely to be palatable to mice in drinking water. With this concentration, a single oral gavage dose will result in a maximum of 10 mg/kg dose level (assuming a maximum dose volume of […]), considerably lower than that estimated to have been used by Thomas et al (150 mg/kg day in drinking water). In an attempt to replicate the original dose level as close as possible, it became necessary to formulate the test compound in suspension. We achieved a stable homogeneous suspension of free base 4b up to 100 mg/ml in 0.5% carboxymethylcellulose (medium viscosity) in reverse osmosis deionized (RODI) water. This suspension was used to evaluate the oral pharmacokinetics of 4b in mice. […]

Nc1ccccc1NC(=O)CCCCCC(=O)Nc1ccccc1 [Compound 4b] showed an inhibition at 10 µM (D4.4 (h)) of 13%, an inhibition at 10 µM (NK3 (h)) of 0% and an inhibition at 10 µM (5‐HT transporter (h)) of 5%. For the same molecule, the inhibition at 10 µM [1] was 14%, the inhibition at 10 µM (dopamine transporter (h)) was 2% and the “% inhibition of control specific binding” value (KV channel) was 2%. The inhibition at 10 µM (A1 (h)) was 7%, the “% inhibition of control specific binding” value [2] was 0% and the inhibition at 10 µM (D2S (h)) was 3%. The inhibition at 10 µM (D3 (h)) was 10%, the “% inhibition of control specific binding” value (Cl‐channel (GABA‐gated)) was 0% and the “% inhibition of control specific binding” value [3] was 7%. For the same molecule, the inhibition at 10 µM [4] was 0%, the “% inhibition of control specific binding” value (I2) was 5% and the inhibition at 10 µM (H1 (h)) was 10%. The inhibition at 10 µM (CCK1 (CCKA) (h)) was 72%, the Ki (CCK1 (CCKA) (h); follow up concentration-effect curve) was 8.6 µM and the solubility ([5]; NMP/PEG400/Solutol HS-15/Lutrol F68 aqueous vehicle, aqueous with cosolvent or surfactant or cyclodextrin, free base, 2% N-methyl-2-pyrollidone, 18% polyethylene glycol 400, 10% solutol HS-15, 70% (1% Lutrol F68 in water), read-out: soluble formulation concentration) was 1000 µg/mL (≈ 3.07 mM). For the same molecule, the “4b dissolved (filtrate of suspension)” value ([5]; free base, 2-hydroxypropyl-β-cyclodextrin 1∶5 molar ratio, target 1 mg/mL) was 0.1 mg/mL, the solubility in water ([5]; neutral pH, free base) was “highly insoluble” and the “solubility in DMSO” value ([5]; prepared at 1 mg/ml) was “soluble”.

In the case of O=C(CCCCCc1nc2ccccc2[nH]1)Nc1ccccc1 [Compound C1, 6-(1-H-benzo[d]imidazol-2-yl)-N-phenylhexanamide], the inhibition at 10 µM (D4.4 (h); 10 μM) is reported as 31%, the inhibition at 10 µM (NK3 (h); 10 μM) is reported as 4% and the inhibition at 10 µM (5‐HT transporter (h); 10 μM) is reported as 5%. The inhibition at 10 µM ([1]; 10 μM) was 40%, the inhibition at 10 µM (dopamine transporter (h); 10 μM) was 23% and the “% inhibition of control specific binding” value (KV channel) was 3%. For the same molecule, the inhibition at 10 µM (A1 (h); 10 μM) was 9%, the “% inhibition of control specific binding” value [2] was 13% and the inhibition at 10 µM (D2S (h); 10 μM) was 2%. The inhibition at 10 µM (D3 (h); 10 μM) was 11%, the “% inhibition of control specific binding” value (Cl‐channel (GABA‐gated)) was 0% and the “% inhibition of control specific binding” value [3] was 19%. The inhibition at 10 µM ([4]; 10 μM) was 30%, the “% inhibition of control specific binding” value (I2) was 73% and the inhibition at 10 µM (H1 (h); 10 μM) was 45%. The inhibition at 10 µM (CCK1 (CCKA) (h)) was 68%, the IC50 (CCK1 (CCKA) (h); read-out: IC50, displacement of CCK1 agonist radioligand binding) was 6.1 µM and the “solubility in aqueous media” value [5] was “readily soluble”.
